From US10975142B2, “Endotrophin neutralization and use thereof” (THE BOARD OF REGENTS OF THE UNIVERSITY OF TEXAS SYSTEM, priority 2013, dated 2021)

Legend:
PyMT mice = experiment: TZD and cisplatin treatment of FP635/PyMT (PyMT) mice; type: in vivo, mouse
Procedure: FIGS. 19A-19F. TZD augments cisplatin sensitivity and correlates with the COL6A3 levels. FIG. 19A. FP635/PyMT mice were given TZD containing chow (supply approx. 20 mg/kg/day, rosiglitazone) or normal-diet (ND) starting at 8-weeks of age, and cisplatin (1 mg/kg) or PBS treatment was initiated at 10 weeks of age (ip., 3 times/week) over the course of tumor progression. Tumor burden was monitored with a fluorescence scanner (IVIS, Caliper life science). Quantified results are represented as mean±SD (n=8-9/group). *p=0.04, ND/CIS vs. TZD/CIS by unpaired student t-test. Metastatic burden was determined by fluorescence signals in lung tissues. FIG. 19B. Primary cancer cells isolated from tumors in PyMT mice were implanted into WT mice. TZD were given 5 days prior to cisplatin treatment (1 mg/kg, every 5 days). Tumor volumes were determined by caliper measurement and represented as mean±SD (n=5-6/group). *p<0.05 and **p<0.001, ND/CIS vs. TZD/CIS by 2-way ANOVA. FIGS. 19C-19D. Total RNA was extracted from tumor tissues in each group. mRNA levels for collagens such as COL1A1, COL6A1, -A2, and -A3 (FIG. 19C), and EMT genes such as E-cadherin, N-cadherin, Vimentin, Snail, Slug, Twist1 and Twist2 (FIG. 19D) were determined by qRT-PCR and normalized with 36B4. Quantitative results represent mean±SD (n=7/group). *p<0.05, **p<0.01, ***p<0.001 ND/PBS vs. ND/CIS; ^###p<0.001 ND/CIS vs. TZD/CIS by 2-way ANOVA. FIGS. 19E-19F. EMT indices were determined by immunostaining with E-Cadherin (FIG. 19E) and Vimentin (FIG. 19F). Cytokeratin (epithelial cells) and DAPI (nucleus) were co-stained. Staining positive area was quantified (multiple images, n=5/group). **p=0.014 (E) and *p=0.015 (F), ND/CIS vs. TZD/CIS by unpaired student t-test. Scale bars: 100 μm.
FIGS. 23A-23B: TZD confers beneficial effects on cisplatin treatment in mammary tumors. Met-1 cancer cells (0.5×10^6 cells/mouse) were implanted into wild-type mice and TZD (20 mg/kg) was given by diet and cisplatin (1 mg/kg) was intraperitoneally (ip.) injected every 5 days from 30 days post implantation (n=8/group). ***p<0.001 vs. ND by 2-way ANOVA. Tumor tissues from PyMT mice given TZD or normal diet (ND) diet were histologically assessed. […] Data represent mean±SD (n=5/group). **p=0.0042 ND vs. TZD by unpaired student t-test. Scales: 50 μm. […] Data represent mean±SD (n=5/group). *p=0.002 ND vs. TZD by unpaired student t-test. Arrows indicate staining positive cells. Scales: 25 μm.
Cisplatin (sigma, 479306) was diluted to 1 mg/ml in PBS and was sonicated briefly before injection. […]
Infrared fluorescence expressing MMTV-PyMT mice (FP635/PyMT) were imaged by IVIS scanner (Caliper lifesciences) and signal intensity was analyzed with Living image v.3.2 (Caliper lifesciences).

ETP+-cancer cells = experiment: allograft of FP635/ETP+-cancer cells in Matrigel plug with or without 10B6; type: in vivo, mouse
Procedure: FIGS. 8A-8I: 10B6 blocks ETP-mediated stromal expansion in vivo. (FIG. 8A) 10B6 (200 μg/mouse) was i.p. injected twice weekly into PyMT mice from 9 to 13 weeks of age. Tumor growth (mean±SEM; n=4-6 per group) was determined by weekly caliper measurements. *P<0.05, **P<0.01, ***P<0.001 vs. IgG control, 2-way ANOVA. (FIG. 8B) Primary mammary epithelial cancer cells were isolated from 12-week-old FP635/PyMT and FP635/PyMT/ETP mice and implanted into WT recipients with the same volume of Matrigel. For the 10B6 group, 10B6 was added in a Matrigel plug (10 μg/plug) admixed with ETP^+-cancer cells (i.e., ETP^+/10B6). A representative whole-body image was acquired 25 days after implantation using IVIS fluorescence scanner. Artificial color indicates fluorescence signal intensity accounts for tumor volume (AU). Quantitative results are represented as mean±SEM (n=3 per group). *P<0.05, unpaired t test. (FIGS. 8C-8I) 6 weeks after implantation, tumor tissues were excised from Ctrl-, ETP^+-, and ETP^+/10B6-cancer cells allografted mice and stained for H&E (FIG. 8C), Masson's Trichrome C (FIG. 8D), α-SMA (FIG. 8E), FSP-1 (FIG. 8F), CD31 (FIG. 8G), F4/80 (FIG. 8H), and Ki67 (FIG. 8I). Quantified results in FIGS. 8D-8I are mean±SEM (multiple images, n=3 per group). *P<0.05, **P<0.01, unpaired t test. Scale bars: 50 μm. (FIG. 8J) Working model for ETP in mammary tumor progression.
Isolation of mammary epithelial cancer cells and implantation procedures were as previously described. Tumor growth was monitored once weekly beginning 2 weeks after implantation.

Molecule: N.N.[Cl][Pt][Cl] [cisplatin, cis-diammine-dichloro-platinum]
- EMT in tumor tissues (loss of E-cadherin or increase in vimentin) (PyMT mice; immunostaining): significant increase
- metallothionein (MT) levels in tumor tissues (PyMT mice; immunostaining): significantly increased
- mRNA levels of COL6A3 in tumor tissues (PyMT mice; qRT-PCR): significantly increased
- mRNA levels for EMT transcription factors (Snail, Slug, Twist1) (PyMT mice; qRT-PCR, tumor tissues): significantly increased

B1: 10B6: rat anti-mouse endotrophin monoclonal antibody; light chain variable SEQ ID NO: 2, heavy chain variable SEQ ID NO: 4 (antibody, V domains shown)
VH: QVQLQQSGPELAKPGSSVKISCKASGYTFTSYEMHWIKQRPGQGLEWIGYIYPESGSTGYNEKFKGKATLTVDKSSPTAYMQLSSLTPDNSAVYFCTRGLRVLGYVMDVWGHGTSVTVSS
VL: DVQLTQSPSFLSASVGDRVTINCKASQNINKYLNWYQQKLGEAPKRLIYNTNNLQTGIPSRFSGSASGTDYTLTISSLHPEDFATYFCLQHSSLYTFGAGTKLELK
- tumor regression (ETP+-cancer cells; 6 weeks after implantation): triggered tumor regression
- ETP+-cancer cell growth (fluorescence imaging) (ETP+-cancer cells; 10B6 10 μg/plug): effectively attenuated
- ETP-mediated tumor stromal expansion (ETP+-cancer cells; H&E, 6 weeks after implantation): inhibited
- ETP-mediated increase in fibrosis and stromal expansion (ETP+-cancer cells; Masson's Trichrome C, α-SMA, FSP-1, CD31, F4/80): completely blocked
